According to the supplement of paper PMC10307832:

How the values were obtained:
Assay in all cases: relative viability (nuclei count vs DMSO), 5 days (fraction); higher = more cells survive
Omipalisib = compound: COc1ncc(-c2ccc3nccc(-c4ccnnc4)c3c2)cc1NS(=O)(=O)c1ccc(F)cc1F [Omipalisib]
Outline: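 For viability, nuclei in each treated well were divided by nuclei in vehicle wells and the median across plates was taken. Lung cancer cell lines in 1536-well plates were pinned with five library-drug doses (not always all listed) spaced by √10, cultured 5 days without medium change, and imaged at 4× after Hoechst staining, with plates passing only at control CV below 25% and at least one doubling.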

Omipalisib + Phenformin = compound: COc1ncc(-c2ccc3nccc(-c4ccnnc4)c3c2)cc1NS(=O)(=O)c1ccc(F)cc1F [Omipalisib] + N=C(N)NC(=N)NCCc1ccccc1 [Phenformin] (partner 250 µM)
Outline: (§1)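 Lung cancer cell lines were seeded in 1536-well plates and dosed by pin tool the next day, with either a single drug or a fixed anchor-drug dose combined with five library-drug doses (not always all listed) spaced in √10 steps. Five days later, one step fixed the cells and stained their nuclei (final 0.05% Triton X-100, 1% formaldehyde, 1 ug/ml Hoechst), and nuclei were counted on 4× images. Relative viability is the nuclei count in treated wells divided by the count in vehicle wells, and each value is the median of duplicate plates.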

Omipalisib + AZD7762 = compound: COc1ncc(-c2ccc3nccc(-c4ccnnc4)c3c2)cc1NS(=O)(=O)c1ccc(F)cc1F [Omipalisib] + NC(=O)Nc1cc(-c2cccc(F)c2)sc1C(=O)N[C@H]1CCCNC1 [AZD7762] (partner 0.2 µM)
Outline: as §1

Omipalisib + Vorinostat = compound: COc1ncc(-c2ccc3nccc(-c4ccnnc4)c3c2)cc1NS(=O)(=O)c1ccc(F)cc1F [Omipalisib] + O=C(CCCCCCC(=O)Nc1ccccc1)NO [Vorinostat] (partner 1 µM)
Outline: as §1

Omipalisib + Linsitinib = compound: COc1ncc(-c2ccc3nccc(-c4ccnnc4)c3c2)cc1NS(=O)(=O)c1ccc(F)cc1F [Omipalisib] + C[C@]1(O)C[C@@H](c2nc(-c3ccc4ccc(-c5ccccc5)nc4c3)c3c(N)nccn32)C1 [Linsitinib] (partner 1 µM)
Outline: as §1

Omipalisib + Olaparib = compound: COc1ncc(-c2ccc3nccc(-c4ccnnc4)c3c2)cc1NS(=O)(=O)c1ccc(F)cc1F [Omipalisib] + O=C(c1cc(Cc2n[nH]c(=O)c3ccccc23)ccc1F)N1CCN(C(=O)C2CC2)CC1 [Olaparib] (partner 8 µM)
Outline: as §1

Cell Line	relative viability (Omipalisib; 0.0003 µM)	relative viability (Omipalisib; 0.003 µM)	relative viability (Omipalisib; 0.03 µM)	relative viability (Omipalisib + Phenformin; first compound 0.0003 µM)	relative viability (Omipalisib + Phenformin; first compound 0.003 µM)	relative viability (Omipalisib + Phenformin; first compound 0.03 µM)	relative viability (Omipalisib + AZD7762; first compound 0.0003 µM)	relative viability (Omipalisib + AZD7762; first compound 0.003 µM)	relative viability (Omipalisib + AZD7762; first compound 0.03 µM)	relative viability (Omipalisib + Vorinostat; first compound 0.0003 µM)	relative viability (Omipalisib + Vorinostat; first compound 0.003 µM)	relative viability (Omipalisib + Vorinostat; first compound 0.03 µM)	relative viability (Omipalisib + Linsitinib; first compound 0.0003 µM)	relative viability (Omipalisib + Linsitinib; first compound 0.003 µM)	relative viability (Omipalisib + Linsitinib; first compound 0.03 µM)	relative viability (Omipalisib + Olaparib; first compound 0.0003 µM)	relative viability (Omipalisib + Olaparib; first compound 0.003 µM)	relative viability (Omipalisib + Olaparib; first compound 0.03 µM)
EPLC-272H	0.958	0.661	0.387	0.294	0.253	0.193	0.149	0.213	0.167	0.586	0.295	0.129	1.38	0.893	0.248	0.712	0.36	0.131
NCI-H1975	0.911	0.672	0.374	0.412	0.292	0.162	0.711	0.446	0.305	0.702	0.458	0.276	0.857	0.614	0.206	0.882	0.521	0.239
NCI-H358	0.893	0.561	0.388	0.259	0.211	0.145	0.43	0.366	0.244	0.573	0.546	0.272	0.639	0.457	0.289	0.544	0.38	0.324
HARA	0.952	0.822	0.42	0.539	0.334	0.332	0.384	0.461	0.334	0.453	0.459	0.201	0.949	0.691	0.275	0.699	0.512	0.214
HOP-62	1.03	1.06	0.753	0.659	0.718	0.639	0.532	0.55	0.438	0.563	0.511	0.323	1.11	0.779	0.559	0.264	0.548	0.486
PC-3 [JPC-3]	1.01	1.07	0.912	0.475	0.477	0.414	0.73	0.685	0.424	0.889	0.821	0.613	0.962	0.976	0.92	1.05	1.16	0.915
NCI-H460	1	0.787	0.334	0.461	0.24	0.0524	0.645	0.621	0.277	0.653	0.617	0.0977	0.509	0.232	0.0381	0.337	0.373	0.167
NCI-H23	0.913	0.594	0.464	0.773	0.635	0.576	0.278	0.227	0.223	0.541	0.297	0.234	0.596	0.397	0.346	0.384	0.242	0.143
201T	0.986	1.03	0.729	0.47	0.421	0.338	0.592	0.516	0.459	1.01	0.855	0.453	1.03	0.916	0.769	0.803	0.859	0.526
RERF-LC-KJ	0.942	0.733	0.571	0.416	0.371	0.28	0.867	0.554	0.514	0.627	0.52	0.424	0.883	0.716	0.697	0.883	0.763	0.562
NCI-H1666	1.01	0.818	0.651	0.547	0.559	0.487	0.852	0.81	0.552	1.02	0.881	0.815	0.689	0.719	0.41	0.687	0.749	0.686
ABC-1	1.02	0.705	0.538	0.221	0.234	0.224	0.888	0.929	0.674	1.04	0.76	0.692	0.771	0.572	0.586	0.911	0.764	0.619
EKVX	0.985	0.79	0.44	0.228	0.254	0.15	0.638	0.723	0.285	0.709	0.588	0.256	1.06	0.76	0.456	0.912	0.734	0.39
BEN	0.789	0.577	0.712	0.259	0.277	0.27	0.533	0.495	0.521	0.502	0.498	0.452	0.669	0.497	0.554	1.01	0.769	0.607
NCI-H322M	0.892	0.728	0.622	0.739	0.57	0.453	0.54	0.455	0.482	0.922	0.765	0.622	0.971	0.72	0.506	0.802	0.815	0.515
HCC-366	0.938	0.853	0.366	0.625	0.263	0.181	0.288	0.208	0.184	0.394	0.223	0.113	0.394	0.156	0.0479	0.327	0.137	0.0831
A-427	0.994	0.866	0.828	0.382	0.224	0.337	0.715	0.628	0.579	0.885	0.877	0.867	1.11	1.09	0.968	0.699	0.604	0.611
NCI-H838	0.957	0.737	0.453	0.566	0.397	0.195	0.895	0.828	0.725	0.678	0.639	0.557	0.902	0.74	0.346	0.745	0.564	0.302
NCI-H1355	0.945	0.664	0.578	0.433	0.351	0.277	0.699	0.571	0.358	0.646	0.396	0.232	0.737	0.584	0.358	0.731	0.52	0.278
NCI-H2126	0.972	0.687	0.495	0.489	0.425	0.292	1.02	0.795	0.657	0.718	0.442	0.348	0.712	0.644	0.422	0.888	0.725	0.412
HCC-827	1.04	1.04	0.666	0.402	0.343	0.271	0.239	0.213	0.143	0.864	0.682	0.438	0.911	0.922	0.387	0.593	0.6	0.243
NCI-H1755	1.01	0.901	0.737	0.625	0.522	0.457	0.471	0.382	0.328	0.747	0.738	0.517	1	0.942	0.516	0.932	0.715	0.362
HCC-15	0.973	0.691	0.7	0.427	0.372	0.306	1.23	0.916	0.91	0.816	0.651	0.489	0.929	0.77	0.799	0.681	0.643	0.542
NCI-H2405	0.982	0.681	0.351	0.401	0.285	0.184	0.725	0.484	0.312	1	0.667	0.418	0.931	0.68	0.387	0.854	0.679	0.388
HCC-78	0.937	0.666	0.345	0.683	0.571	0.282	0.593	0.508	0.281	0.334	0.337	0.246	0.389	0.358	0.24	0.665	0.542	0.298
NCI-H441	0.832	0.574	0.427	0.703	0.659	0.318	1.02	1.02	0.717	0.783	0.526	0.399	0.569	0.382	0.394	0.55	0.321	0.37
LCLC-97TM1	1.03	0.586	0.203	0.38	0.338	0.159	0.158	0.36	0.116	0.728	0.378	0.179	0.172	0.135	0.134	0.383	0.291	0.0739
LCLC-103H	1.04	0.745	0.617	0.319	0.29	0.174	0.747	0.623	0.402	0.848	0.554	0.43	1.17	1.08	0.428	0.781	0.726	0.397
NCI-H1944	0.856	0.646	0.371	0.183	0.148	0.126	0.406	0.345	0.262	0.469	0.359	0.29	1.21	0.854	0.481	0.334	0.349	0.203
